In ChEMBL document CHEMBL4043229, “gem-Dithioacetylated indole derivatives as novel antileishmanial agents” (Bioorg Med Chem Lett, 2017) one finds inhibition and CC50 data, which are given here for seven compounds.

Data set [1] has as its system Leishmania donovani. Briefly: Anti-leishmanial activity against promastigote stage of Leishmania donovani MHOM/IN/Dd8 harboring luciferase gene at 12.5 ug/ml after 72 hrs by luminescence assay relative to control. In kind it is functional. Particulars: for inhibition at 12.5 µg/mL: MHOM/IN/Dd8, 72 h.
Data set [2] concerns Leishmania donovani. In words: Anti-leishmanial activity against intracellular amastigote stage of Leishmania donovani harboring luciferase gene infected in mouse J774A1 cells at 12.5 ug/ml after 72 hrs by luminescence assay relative to control. In kind it is functional. To be noted: for inhibition at 12.5 µg/mL: J774.A1, 72 h.
The nature of data set [3]: Cytotoxicity against mouse J774A1 cells after 72 hrs by MTT assay. In kind it is cell-based, J774.A1. (Tetrazolium dyes change colour on reduction, which living cells bring about.)

In brackets after ≈: the same amount, converted by molar mass. Activity calls are given as the source filed them. The rule behind the calls is not given here.

Regarding `CC(=O)SC(SC(C)=O)c1cn(CCCCOc2ccc(C#N)cc2)c2ccccc12`, the inhibition at 12.5 µg/mL in the data set with Leishmania donovani [1] was determined as 90.9%; with Leishmania donovani [2] it was 97.8%. This compound returned a CC50 at 72 h in data set [3] of more than 100 µg/mL.
On to `N#Cc1ccc(OCCCCCn2cc(C=O)c3ccccc32)cc1`, for which the inhibition result with Leishmania donovani [1] and in the data set with Leishmania donovani [2] was “inactive” in each case.
Take `CC(=O)SC(SC(C)=O)c1cn(CCCCCN2CCN(c3ccccc3)CC2)c2ccccc12`: the values for the inhibition at 12.5 µg/mL in the data set on Leishmania donovani [1] and in the data set on Leishmania donovani [2] were 60.1% and 86.8%, respectively. Moreover, the CC50 at 72 h in data set [3] was found to be 13.8 µg/mL (≈ 27.1 µM).
For `CC(=O)SC(SC(C)=O)c1cn(CCCCCOc2ccc(C#N)cc2)c2ccccc12`, the inhibition at 12.5 µg/mL in the data set on Leishmania donovani [1] was 96%; in the data set with Leishmania donovani [2] it was 99.8%. This compound came in with a CC50 at 72 h in data set [3] of more than 100 µg/mL.
In turn, `CCCCn1cc(C(SC(C)=O)SC(C)=O)c2ccccc21` returned an inhibition at 12.5 µg/mL with Leishmania donovani [1] of 74%.
Consider `CC(=O)SC(SC(C)=O)c1cn(C)c2ccccc12`, for which, in the data set with Leishmania donovani [1], testing at 12.5 µg/mL gave an inhibition of 31%.
`CC(=O)SC(SC(C)=O)c1cn(CCCCCCOc2ccc(C#N)cc2)c2ccccc12`: the inhibition at 12.5 µg/mL in the data set on Leishmania donovani [1] stood at 91.6%; with Leishmania donovani [2], 40.2%. The compound also gave a CC50 at 72 h in data set [3] of more than 100 µg/mL.

By inhibition is commonly meant how much of the control response was suppressed. As usually defined, the CC50 is the concentration giving 50% cytotoxicity.
